The text below walks through data of patent US12186294B2, “Modulators of prostate-specific g-protein receptor (PSGR/OR51E2) and methods of using same” (Duke University, priority 2016, dated 2025).

For one assay, the target named is T1, OR51E2 (Homo sapiens, UniProt Q9H255).
T1 construct: expressed in transfected cells; host or cells: Hana3A cells (modified human embryonic kidney cells)
T1 sequence (Q9H255 1-320): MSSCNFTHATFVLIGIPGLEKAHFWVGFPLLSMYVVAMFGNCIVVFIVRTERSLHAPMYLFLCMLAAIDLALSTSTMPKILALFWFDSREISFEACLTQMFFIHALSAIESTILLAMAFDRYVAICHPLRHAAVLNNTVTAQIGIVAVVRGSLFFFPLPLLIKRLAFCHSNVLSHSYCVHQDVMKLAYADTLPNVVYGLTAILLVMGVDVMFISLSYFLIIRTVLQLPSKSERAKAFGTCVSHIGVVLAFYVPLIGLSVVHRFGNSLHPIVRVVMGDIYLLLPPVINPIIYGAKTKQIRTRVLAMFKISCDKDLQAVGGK
Nature of the assay: in vitro luciferase assay (CRE-Luc) in Hana3A cells transfected with OR51E2. The format is cell-based. The following applies: for EC50: OR51E2 agonist, Hana3A cells, luciferase, read-out: EC50 (potency); for Efficacy: compared to the 1 mM PA response. As for the experimental part:
Hana3A cells (modified human embryonic kidney cells) were cultured in 96 well plates in M10PSF medium. LNCaP human prostate cancer cells were cultured in both RPMI medium and androgen deprived RPMI medium. Hana3A cells were transfected with CRE-Luc (CREB-dependent luciferase (Firefly)) and SV40-RL promoter plasmids, and pCI and OR51E2 plasmids. […] Upon ligand binding, an increase in cAMP drives the expression of Firefly luciferase. Increase in luminescence signal was measured with a luminometer and Optima Data Analysis software. The luminescent signal is directly proportional to receptor activation. A general schematic of a luciferase assay is shown in FIG. 5 and a schematic of the assay used in this Example is shown in FIG. 6.
The top 56 compounds from the VLS list were tested using the in vitro expression and luciferase assay. […] The biologically relevant concentrations of each metabolite were individually determined based on available data in the literature. If no data were available, compounds were tested in the range of 1 nM-100 μM. Responses were normalized to the response with 1 mM propionic acid (PA), a previously identified agonist, and also to a response with no-control.

The subject of assay [1] is LNCaP cells. Nature of the assay: RT-PCR assay of NED marker and OR51E2 transcript levels in LNCaP cells. The format is cell-based, human. As for the experimental part:
To assess the differentiation status of LNCaP cells following treatment with an OR51E2 ligand, cells were exposed to the ligands for three days. Biological markers of NED were analyzed using an RT-PCR assay. The following markers were tested: neuron specific enolase (NSE) and α-methylacyl-CoA racemase (AMACR), an enzyme essential for isomerization of branched-chained fatty acids that is present at low levels in healthy prostate cells and increased in PCa and in NE-like cells. Furthermore, changes in the expression levels of OR51E2 and androgen receptor (AR) were determined. This experiment will also be conducted using RWPE-2 cells.
For example, 19-OH AD agonist treatment of LNCaP cells increased OR51E2 transcript levels. […] Further studies using siRNA gene knockdown assays, will determine whether activated/overexpressed OR51E2 is involved in NEtD.

Assay [2] concerns LNCaP cells. The experiment in a line: untargeted GC/MS metabolomics signatures of LNCaP cells treated with OR51E2 ligand. The format is cell-based, human. The following applies: 72 hours, 100 nM 19-OH AD, 250 μM AFMK, 1 mM PA. As for the experimental part:
Metabolomics signatures were assessed using untargeted gas chromatography/mass spectrometry (GC/MS) to analyze LNCaP cells treated with an OR51E2 ligand for 3 days. There were six biological replicates for each treatment and the results were analyzed using MetaboAnalyst software. The same analysis will also be conducted using RWPE-2 cells.
GC/MS analysis detected greater than 250 features, and 115 of them were annotated. In FIG. 24A-24F, the top 15 metabolites are presented showing the most significant differences in cells treated with agonists when compared to control cells.

For assay [3], the system named is LNCaP cells. As to conditions: cited from earlier work.
The test system of assay [4] is LNCaP cells. Nature of the assay: cell viability/proliferation assay of LNCaP cells (CellTiter-Glo). The format is cell-based, human. As to conditions: 10 uM, 7 day incubation, vs untreated control. Here is the method: The NEtD status was assessed through analysis of viability and proliferation of LNCap cells using use CellTiter-Glo Luminescent cell viability assay (Promega). […] Viability and proliferation assays will also be conducted with OR51E2 ligands in RWPE-2 cells.
Furthermore, a cell viability/proliferation assay of prostate cancer LNCaP cells was performed using 13-cis RA during a 7 day incubation period.

The mark [5] stands for this setting: 12 days incubation with agonist, vs control.

Square brackets hold non-standard residues; d marks the D form. Peptide text beside a SMILES is read from it.

The EC50 is the concentration at which the effect is half-maximal. Regarding `Cc1c(O)cc2c(c1C)OC(C)(CCC(=O)O)CC2` (stereo not drawn) [Gamma-CEHC], on OR51E2, the half-maximal effective concentration (EC50) came to 6.4 nM and the Efficacy is reported as 1.286.
The like results for `O=C(O)C(=O)CO` [Hydroxypyruvic acid] were, in that order, 420 nM and 1.100.
On the same counts, the results for `O=C1CCCN1` [2-Pyrrolidinone] are 1.9 nM and 0.525.
The like results for `OC[C@H]1O[C@H](O[C@H]2C(O)O[C@H](CO)[C@@H](O)[C@@H]2O)[C@H](O)[C@@H](O)[C@@H]1O` (stereo partly drawn) [Kojibiose] were, in that order, 1000 nM and 0.790.
In turn, `NCC(=O)O` [Glycine] returned an Efficacy at OR51E2 of 0.613.
Regarding `CCCCCCCCCCCCCCCC(=O)O` [Palmitic acid], on OR51E2, the EC50 turned out to be 9.8 nM and the Efficacy came out at 0.927.
Regarding `O=C(O)[C@@H](O)CO` [L-Glyceric acid], at OR51E2, the 50% effective concentration (EC50) turned out to be 1.9 nM.
Consider `C[C@]12CC[C@H]3[C@@H](CCC4=CC(=O)CC[C@@]43CO)[C@@H]1CCC2=O` [19-OH AD, 19-hydroxyandrost-4-ene-3,17-dione], for which, on OR51E2, the EC50 turned out to be 0.15 nM and the Efficacy is listed as 0.890. Further, in the assay on LNCaP cells [1] (setting [5]), the OR51E2 transcript levels entry is recorded as “increased”. Further, the “metabolite differences relative to controls (GC/MS)” value in the assay with LNCaP cells [2] was “significant differences relative to controls”.
On to `CC(=O)N[C@@H](CCC(=O)O)C(=O)O` [N-Acetylglutamic acid], for which the concentration giving a half-maximal response (EC50) at OR51E2 worked out at 0.23 nM.
For orientation: IC50 means the concentration at which inhibition is half-maximal. In the case of `CC1=C(/C=C/C(C)=C/C=C/C(C)=C\C(=O)O)C(C)(C)CCC1` [13-cis RA, 13-cis retinoic acid], the “LNCaP cell growth and tumorigenic potential” value with LNCaP cells [3] (Dahiya et al. (1994)) is “inhibits cell growth and decreases tumorigenic potential”. Further, on OR51E2 (responses normalized to 1 mM PA, read-out: IC50 (OR51E2 antagonist)), the IC50 came out at 160 nM. For the same compound, the OR51E2 transcript levels result in the assay on LNCaP cells [1] (10 μM, 3 days, vs control cells) is recorded as “significantly decreased”. For the same compound, the LNCaP growth result in the assay on LNCaP cells [4] is “effectively impeded”.
As to `CC(=O)/C=C/C1=C(C)CCCC1(C)C` [beta ionone, beta-ionone], the “proliferation of LNCaP cells” value in the assay on LNCaP cells [3] (Neuhaus et al. (2009), OR51E2/PSGR activation) is listed as “decreased”.
As for `NCC(=O)NCC(=O)O` [Glycylglycine] (H-Gly-Gly-OH), the concentration giving a half-maximal response (EC50) on OR51E2 was 11000 nM.
As to `C[C@]12CCC(=O)CC1CC[C@@H]1[C@@H]2CC[C@]2(C)C(=O)CC[C@@H]12` (stereo partly drawn) [Androstanedione], on OR51E2, the EC50 turned out to be 0.79 nM and the Efficacy amounted to 0.888.
Turning to `C[C@]12CC[C@@H]3c4ccc(O)cc4CC[C@H]3[C@@H]1C[C@@H](O)[C@@H]2O` [Estriol], the half-maximal effective concentration (EC50) on OR51E2 came out at 53000 nM.
Same read-out and setting: the same measure for `C[C@@H](N)C(=O)N[C@H](C)C(=O)O` [D-Alanyl-d-alanine] (H-[dA]-[dA]-OH): 14000 nM.
For the compound `NC(N)=O` [Urea], on OR51E2, the half-maximal effective concentration (EC50) amounted to 23 nM and the Efficacy worked out at 0.580.
For the compound `COc1ccc(NC=O)c(C(=O)CCNC(C)=O)c1` [AFMK, N-acetyl-N-formyl-5-metoxykynurenamine], on OR51E2, the concentration giving a half-maximal response (EC50) worked out at 12000 nM and the Efficacy came to 1.483. Moreover, in the assay with LNCaP cells [2], the “metabolite differences relative to controls (GC/MS)” value is reported as “significant differences relative to controls”.
Regarding `Nc1ncnc2c1ncn2C1OC(CO)C2OP(=O)(O)OC21` (stereo not drawn) [Adenosine 2′,3′-cyclic phosphate], on OR51E2, the EC50 turned out to be 26 nM and the Efficacy amounted to 1.025.
The like results for `C[C@]12CC[C@H]3[C@@H](CCC4=CC(=O)CC[C@@]43C)[C@@H]1CC[C@H]2O` [Epitestosterone] were, in that order, 0.69 nM and 0.477.
Turning to `CCC(=O)O` [PA, propionic acid], in the assay on LNCaP cells [1] (setting [5]), the AMACR transcript levels entry is given as “increased” and the NSE transcript levels result was “increased”. In the assay on LNCaP cells [2], the “metabolite differences relative to controls (GC/MS)” value was “significant differences relative to controls”.
